Assay results from article PMC8955485, “Journey on VX-809-Based Hybrid Derivatives towards Drug-like F508del-CFTR Correctors: From Molecular Modeling to Chemical Synthesis and Biological Assays” (Pharmaceuticals, 2022).
Where “and” joins values, the source holds several entries; their conditions need not be identical. Identical values can stand only once. Like-named read-outs stand apart in the source and are kept apart here.

Legend:
F508del-CFTR [1] = target: T1, F508del-CFTR (Homo sapiens, UniProt P13569, DEL508-508); design: expressed in transfected cells; details: first series of hybrids, cited from earlier work; for pEC50: from EC50 of ref 27
T1 sequence (P13569 with tags, fused parts or gaps DEL508-508): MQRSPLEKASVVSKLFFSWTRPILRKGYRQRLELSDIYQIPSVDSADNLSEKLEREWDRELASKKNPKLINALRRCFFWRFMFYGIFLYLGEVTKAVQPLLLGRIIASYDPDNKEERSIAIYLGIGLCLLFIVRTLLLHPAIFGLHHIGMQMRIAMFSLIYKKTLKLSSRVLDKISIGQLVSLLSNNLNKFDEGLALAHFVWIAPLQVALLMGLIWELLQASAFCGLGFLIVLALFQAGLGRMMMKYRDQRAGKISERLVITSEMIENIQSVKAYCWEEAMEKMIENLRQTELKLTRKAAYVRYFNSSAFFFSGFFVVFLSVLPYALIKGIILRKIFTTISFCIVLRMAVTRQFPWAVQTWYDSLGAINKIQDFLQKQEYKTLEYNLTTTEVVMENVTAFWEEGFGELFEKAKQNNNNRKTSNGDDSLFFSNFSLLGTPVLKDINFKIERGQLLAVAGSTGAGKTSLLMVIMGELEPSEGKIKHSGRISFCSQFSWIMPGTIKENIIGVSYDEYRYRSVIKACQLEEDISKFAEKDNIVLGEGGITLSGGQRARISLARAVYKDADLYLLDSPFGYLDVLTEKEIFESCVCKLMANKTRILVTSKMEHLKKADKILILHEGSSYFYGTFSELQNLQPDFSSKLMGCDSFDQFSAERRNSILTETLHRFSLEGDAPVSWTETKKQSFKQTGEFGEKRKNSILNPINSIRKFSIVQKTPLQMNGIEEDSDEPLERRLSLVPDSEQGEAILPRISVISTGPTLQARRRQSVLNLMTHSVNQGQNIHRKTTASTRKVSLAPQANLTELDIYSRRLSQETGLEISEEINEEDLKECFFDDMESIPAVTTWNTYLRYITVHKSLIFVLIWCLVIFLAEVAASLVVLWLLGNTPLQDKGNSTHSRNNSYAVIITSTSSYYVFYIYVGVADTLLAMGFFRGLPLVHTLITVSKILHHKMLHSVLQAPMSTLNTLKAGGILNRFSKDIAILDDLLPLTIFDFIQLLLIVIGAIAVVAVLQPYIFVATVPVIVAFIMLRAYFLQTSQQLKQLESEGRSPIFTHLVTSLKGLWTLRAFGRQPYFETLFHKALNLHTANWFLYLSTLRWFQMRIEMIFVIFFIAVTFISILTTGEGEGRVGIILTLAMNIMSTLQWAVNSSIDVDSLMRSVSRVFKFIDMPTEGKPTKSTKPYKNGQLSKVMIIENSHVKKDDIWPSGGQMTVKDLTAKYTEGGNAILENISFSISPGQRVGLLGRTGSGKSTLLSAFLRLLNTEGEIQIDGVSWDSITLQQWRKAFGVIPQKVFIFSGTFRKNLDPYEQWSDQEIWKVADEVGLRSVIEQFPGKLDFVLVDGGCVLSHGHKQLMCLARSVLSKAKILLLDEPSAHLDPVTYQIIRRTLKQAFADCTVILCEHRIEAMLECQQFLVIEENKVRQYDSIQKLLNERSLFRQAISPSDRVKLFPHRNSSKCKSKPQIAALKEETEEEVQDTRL

F508del-CFTR [2] = target: T1, F508del-CFTR; assay: HS-YFP functional assay for F508del-CFTR correctors in CFBE41o- cells; assay type: cell-based; design: expressed in transfected cells; details: CFBE41o- cells stably expressing F508del-CFTR and HS-YFP; 24 h incubation; stimulation with forskolin 20 µM plus VX-770 1 µM
Procedure: The ability of these compounds to correct the basic defects related to F508del mutant was evaluated on immortalized CFBE41o-bronchial epithelial cells stably expressing F508del-CFTR and the halide sensitive yellow fluorescent protein (HS-YFP).
The measurements of the rate of HS-YFP quenching caused by iodide influx allowed us to determine the activity of F508del-CFTR, after incubation with the compounds, as cited. Activity was then compared to that of cells treated with the corrector VX-809 (1 µM) or with vehicle alone (DMSO).
Within the novel third series of hybrids herein proposed, based on their potency and efficacy in terms of CFTR rescue, we selected six compounds and determined the dose–response relationships (Figure 6). To this aim, F508del-CFTR expressing CFBE41o-cells were treated for 24 h with our hybrids 9b, 9f, 9g, 9h, 9j, and 9y and then mutant CFTR activity was measured by using the YFP functional assay (see Materials and Methods section for details).
Immortalized bronchial epithelial CFBE41o-cells with stable co-expression of the halide-sensitive yellow fluorescent protein (HS-YFP) and of F508del-CFTR were cultured using MEM medium supplemented with 10% fetal calf serum, 100 U/mL penicillin, 2 mM L-glutamine, and […] streptomycin.
CFBE41o-cells co-expressing mutants CFTR and HS-YFP were plated (50,000 cells/well) on clear-bottom 96-well black microplates (Corning Life Sciences, Acton, MA) and grown at 37 °C in 5% CO2 for 24 h. For the corrector assay, CFBE41o-cells were treated for further 24 h with compounds as indicated. The following day, prior to the assay, the culture medium was removed and cells were stimulated for 30 min at 37 °C with 60 µL PBS (containing 137 mM NaCl, 2.7 mM KCl, 8.1 mM Na2HPO4, 1.5 mM KH2PO4, 1mM CaCl2, and 0.5 mM MgCl2) plus forskolin (20 µM) and VX-770 (1 µM).
Microplates containing CFBE41o-cells were then transferred to a plate reader (FluoStar Galaxy; BMG Labtech, Offenburg, Germany) equipped with excitation (HQ500/20X: 500 ± 10 nm) and emission (HQ535/30M: 535 ± 15 nm) filters for YFP (Chroma Technology, Brattleboro, VT, USA). During the assay fluorescence was measured continuously for 14 s with 2 s before and 12 s after injection of an iodide containing solution (165 µL of a modified PBS containing I^- instead of Cl^-; final I^- concentration in the well: 100 mM).
Fluorescence data were normalized for the initial value and fluorescence quenching rate following I^- influx, were determined by fitting the final 10 s of data for each well with an exponential function to extrapolate initial slope (dF/dt).
To evaluate the dose–response relationships, activity slopes obtained for each compound at the different concentrations were fitted with the Hill equation using the Igor software (WaveMetrics) to extrapolate EC50, maximal effect, and Hill coefficient.

O=C(c1ccccc1)c1sc(NC(=O)C2(c3ccc4c(c3)OCO4)CC2)nc1-c1ccccc1 [Compound 2a]
EC50 (F508del-CFTR [1]): 0.087 µM
pEC50 (F508del-CFTR [1]): 7.06 M

CCOC(=O)c1sc(NC(=O)C2(c3ccc4c(c3)OCO4)CC2)nc1-c1ccc(Br)cc1 [Compound 2b]
EC50 (F508del-CFTR [1]): 0.3 µM
pEC50 (F508del-CFTR [1]): 6.52 M

CCOC(=O)c1sc(NC(=O)C2(c3ccc4c(c3)OCO4)CC2)nc1-c1cccc(Cl)c1 [Compound 2c]
EC50 (F508del-CFTR [1]): 0.55 µM
pEC50 (F508del-CFTR [1]): 6.26 M

CCOC(=O)c1sc(NC(=O)C2(c3ccc4c(c3)OCO4)CC2)nc1-c1ccc(Cl)cc1 [Compound 2d]
EC50 (F508del-CFTR [1]): 0.9 µM
pEC50 (F508del-CFTR [1]): 6.05 M

Cc1sc(NC(=O)C2(c3ccc4c(c3)OCO4)CC2)nc1-c1ccc(Cl)cc1 [Compound 3a]
EC50 (F508del-CFTR [1]): 2.9 µM
pEC50 (F508del-CFTR [1]): 5.54 M

Cc1sc(NC(=O)C2(c3ccc4c(c3)OCO4)CC2)nc1-c1ccc(Br)cc1 [Compound 3b]
EC50 (F508del-CFTR [1]): 1.9 µM
pEC50 (F508del-CFTR [1]): 5.72 M

Cc1sc(NC(=O)C2(c3ccc4c(c3)OCO4)CC2)nc1-c1cccc(Cl)c1 [Compound 3c]
EC50 (F508del-CFTR [1]): 2.3 µM
pEC50 (F508del-CFTR [1]): 5.64 M

Cc1sc(NC(=O)C2(c3ccc4c(c3)OCO4)CC2)nc1-c1ccccc1 [Compound 3d]
EC50 (F508del-CFTR [1]): 1.6 µM
pEC50 (F508del-CFTR [1]): 5.80 M

Cc1sc(NC(=O)C2(c3ccc4c(c3)OCO4)CC2)nc1-c1ccc(F)cc1 [Compound 3e]
EC50 (F508del-CFTR [1]): 0.9 µM
pEC50 (F508del-CFTR [1]): 6.05 M

O=C(Nc1nc(-c2ccc(Cl)cc2)cs1)C1(c2ccc3c(c2)OCO3)CC1 [Compound 4a]
EC50 (F508del-CFTR [1]): 2.9 µM
pEC50 (F508del-CFTR [1]): 5.54 M

O=C(Nc1nc(-c2ccc(Br)cc2)cs1)C1(c2ccc3c(c2)OCO3)CC1 [Compound 4b]
EC50 (F508del-CFTR [1]): 4.9 µM
pEC50 (F508del-CFTR [1]): 5.31 M

O=C(Nc1nc(-c2cccc(Cl)c2)cs1)C1(c2ccc3c(c2)OCO3)CC1 [Compound 4c]
EC50 (F508del-CFTR [1]): 8.2 µM
pEC50 (F508del-CFTR [1]): 5.09 M

O=C(Nc1nc(-c2ccc(I)cc2)cs1)C1(c2ccc3c(c2)OCO3)CC1 [Compound 4d]
EC50 (F508del-CFTR [1]): 1.2 µM
pEC50 (F508del-CFTR [1]): 5.92 M

O=C(Nc1nc(-c2cccc(F)c2)cs1)C1(c2ccc3c(c2)OCO3)CC1 [Compound 4e]
EC50 (F508del-CFTR [1]): 2.1 µM
pEC50 (F508del-CFTR [1]): 5.68 M

O=C(Nc1nc(-c2ccc(O)cc2)cs1)C1(c2ccc3c(c2)OCO3)CC1 [Compound 5a]
EC50 (F508del-CFTR [1]): 1.8 µM
pEC50 (F508del-CFTR [1]): 5.74 M

O=C(Nc1nc(-c2cccc(O)c2)cs1)C1(c2ccc3c(c2)OCO3)CC1 [Compound 5b]
EC50 (F508del-CFTR [1]): 2.3 µM
pEC50 (F508del-CFTR [1]): 5.64 M

Cc1sc(NC(=O)C2(c3ccc4c(c3)OCO4)CC2)nc1-c1cccc(O)c1 [Compound 5c]
EC50 (F508del-CFTR [1]): 1.2 µM
pEC50 (F508del-CFTR [1]): 5.92 M

Cc1sc(NC(=O)C2(c3ccc4c(c3)OCO4)CC2)nc1-c1ccc(O)cc1 [Compound 5d]
EC50 (F508del-CFTR [1]): 3.9 µM
pEC50 (F508del-CFTR [1]): 5.41 M

O=C(O)c1ccc(-c2csc(NC(=O)C3(c4ccc5c(c4)OCO5)CC3)n2)cc1 [Compound 5e]
EC50 (F508del-CFTR [1]): > 5 µM and 5 µM
pEC50 (F508del-CFTR [1]): 5.30 M

Cc1sc(NC(=O)C2(c3ccc4c(c3)OCO4)CC2)nc1-c1ccc(C(=O)O)cc1 [Compound 5f]
EC50 (F508del-CFTR [1]): 2.9 µM
pEC50 (F508del-CFTR [1]): 5.54 M

CC(=O)Nc1ccc(-c2csc(NC(=O)C3(c4ccc5c(c4)OCO5)CC3)n2)cc1 [Compound 5g]
EC50 (F508del-CFTR [1]): > 5 µM and 5 µM
pEC50 (F508del-CFTR [1]): 5.30 M

Cc1sc(NC(=O)C2(c3ccc4c(c3)OC(F)(F)O4)CC2)nc1-c1ccc(Br)cc1 [Compound 6a]
EC50 (F508del-CFTR [1]): 3.8 µM
pEC50 (F508del-CFTR [1]): 5.42 M

Cc1sc(NC(=O)C2(c3ccc4c(c3)OC(F)(F)O4)CC2)nc1-c1cccc(Cl)c1 [Compound 6b]
EC50 (F508del-CFTR [1]): 5.4 µM
pEC50 (F508del-CFTR [1]): 5.27 M

O=C(Nc1nc(-c2cccc(O)c2)cs1)C1(c2ccc3c(c2)OC(F)(F)O3)CC1 [Compound 6c]
EC50 (F508del-CFTR [1]): 1.3 µM
pEC50 (F508del-CFTR [1]): 5.89 M

O=C(Nc1nc(-c2ccc(O)cc2)cs1)C1(c2ccc3c(c2)OC(F)(F)O3)CC1 [Compound 6d]
EC50 (F508del-CFTR [1]): 1.7 µM
pEC50 (F508del-CFTR [1]): 5.77 M

COc1ccc(-c2nc(NC(=O)C3(c4ccc5c(c4)OCO5)CC3)sc2C(=O)c2ccccc2)cc1 [Compound 9a, 1-(benzo[d][1, 3]dioxol-5-yl)-N-(5-benzoyl-4-(4-methoxyphenyl)thiazol-2-yl)cyclopropane-1-carboxamide]
EC50 (F508del-CFTR [2]): 0.35 µM

COc1ccc(-c2nc(NC(=O)C3(c4ccc5c(c4)OCO5)CC3)sc2C(=O)c2ccc(OC(F)(F)F)cc2)cc1 [Compound 9c]
EC50 (F508del-CFTR [2]): 0.14 µM

COc1ccc(-c2nc(NC(=O)C3(c4ccc5c(c4)OCO5)CC3)sc2C(=O)c2ccc(SC)cc2)cc1 [Compound 9d]
EC50 (F508del-CFTR [2]): 0.1 µM

CCOC(=O)c1ccc(C(=O)c2sc(NC(=O)C3(c4ccc5c(c4)OCO5)CC3)nc2-c2ccc(OC)cc2)cc1 [Compound 9e]
EC50 (F508del-CFTR [2]): 0.56 µM

COc1ccc(-c2nc(NC(=O)C3(c4ccc5c(c4)OCO5)CC3)sc2C(=O)c2ccc(-c3ccccc3)cc2)cc1 [Compound 9f]
EC50 (F508del-CFTR [2]): 0.14 µM

COc1ccc(-c2nc(NC(=O)C3(c4ccc5c(c4)OCO5)CC3)sc2C(=O)c2cccc(OC)c2)cc1 [Compound 9h]
EC50 (F508del-CFTR [2]): 0.12 µM

COc1ccc(C(=O)c2sc(NC(=O)C3(c4ccc5c(c4)OCO5)CC3)nc2-c2cccc(OC)c2)cc1 [Compound 9i, 1-(benzo[d][1,3]dioxol-5-yl)-N-(5-(4-methoxybenzoyl)-4-(3-methoxyphenyl)thiazol-2-yl)cyclopropane-1-carboxamide]
EC50 (F508del-CFTR [2]): 0.19 µM

COc1cccc(-c2nc(NC(=O)C3(c4ccc5c(c4)OCO5)CC3)sc2C(=O)c2ccc(SC)cc2)c1 [Compound 9k]
EC50 (F508del-CFTR [2]): 0.36 µM

CCOC(=O)c1ccc(C(=O)c2sc(NC(=O)C3(c4ccc5c(c4)OCO5)CC3)nc2-c2cccc(OC)c2)cc1 [Compound 9l]
EC50 (F508del-CFTR [2]): 0.49 µM

COc1cccc(-c2nc(NC(=O)C3(c4ccc5c(c4)OCO5)CC3)sc2C(=O)c2ccc(-c3ccccc3)cc2)c1 [Compound 9m]
EC50 (F508del-CFTR [2]): 0.74 µM

COc1cccc(-c2nc(NC(=O)C3(c4ccc5c(c4)OCO5)CC3)sc2C(=O)c2ccc(N3CCCC3)cc2)c1 [Compound 9n]
EC50 (F508del-CFTR [2]): 0.6 µM

COc1cccc(C(=O)c2sc(NC(=O)C3(c4ccc5c(c4)OCO5)CC3)nc2-c2cccc(OC)c2)c1 [Compound 9o]
EC50 (F508del-CFTR [2]): 0.21 µM

COc1ccc(C(=O)c2sc(NC(=O)C3(c4ccc5c(c4)OCO5)CC3)nc2-c2ccccc2OC)cc1 [Compound 9p, 1-(benzo[d][1,3]dioxol-5-yl)-N-(5-(4-methoxybenzoyl)-4-(2-methoxyphenyl)thiazol-2-yl)cyclopropanecarboxamide]
EC50 (F508del-CFTR [2]): 0.22 µM

COc1ccccc1-c1nc(NC(=O)C2(c3ccc4c(c3)OCO4)CC2)sc1C(=O)c1ccc(OC(F)(F)F)cc1 [Compound 9q]
EC50 (F508del-CFTR [2]): 0.15 µM

COC(=O)c1ccc(-c2nc(NC(=O)C3(c4ccc5c(c4)OCO5)CC3)sc2C(=O)c2ccc(-c3ccccc3)cc2)cc1 [Compound 9r, Methyl 4-(5-([1,1′-biphenyl]-4-carbonyl)-2-(1-(benzo[d][1,3]dioxol-5-yl)cyclopropane-1-carboxamido)thiazol-4-yl)benzoate]
EC50 (F508del-CFTR [2]): 0.12 µM

CSc1ccc(-c2nc(NC(=O)C3(c4ccc5c(c4)OCO5)CC3)sc2C(=O)c2ccc(-c3ccccc3)cc2)cc1 [Compound 9s, N-(5-([1,1′-biphenyl]-4-carbonyl)-4-(4-(methylthio)phenyl)thiazol-2-yl)-1-(benzo[d][1,3]dioxol-5-yl)cyclopropane-1-carboxamide]
EC50 (F508del-CFTR [2]): 0.13 µM

O=C(c1ccc(-c2ccccc2)cc1)c1sc(NC(=O)C2(c3ccc4c(c3)OCO4)CC2)nc1-c1cccnc1 [Compound 9t, N-(5-([1,1′-biphenyl]-4-carbonyl)-4-(pyridin-3-yl)thiazol-2-yl)-1-(benzo[d][1,3]dioxol-5-yl)cyclopropane-1-carboxamide]
EC50 (F508del-CFTR [2]): 0.13 µM

O=C(c1ccc(-c2ccccc2)cc1)c1sc(NC(=O)C2(c3ccc4c(c3)OCO4)CC2)nc1-c1ccc(Cl)cc1 [Compound 9u, N-(5-([1,1′-biphenyl]-4-carbonyl)-4-(4-chlorophenyl)thiazol-2-yl)-1-(benzo[d][1,3]dioxol-5-yl)cyclopropane-1-carboxamide]
EC50 (F508del-CFTR [2]): 0.64 µM

COc1cccc(C(=O)c2sc(NC(=O)C3(c4ccc5c(c4)OCO5)CC3)nc2-c2ccc(SC)cc2)c1 [Compound 9v]
EC50 (F508del-CFTR [2]): 0.28 µM
